Earlier results, collected in US10610591B2, “Light responsive quantum dot drug delivery system” (Nanoco Technologies Ltd., priority 2017, dated 2020).

Legend:
[1] = pH 7.4
[2] = not given; remark: listed apart in the source

CC1=C(CC(=O)O)c2cc(F)ccc2/C1=C\c1ccc([S+](C)[O-])cc1 (centres unmarked) [sulindac]
log D7.4 [1]: 0.12
log P^N (neutral) (neutral): 3.60

CC(C)(C#N)c1cc(Cn2cncn2)cc(C(C)(C)C#N)c1 [anastrozole, alpha,alpha,alpha′,alpha′-tetramethyl-5-(1H,1,2,4-triazol-1-ylmethyl)-m-benzenediacetonitrile]
log P (log Po/w, log Poct/wat, log Pexp) (octanol/water): 2.4

7-Ethyl-10-hydroxycamptothecin
solubility in DMSO ([2]; DMSO): 2000 µg/mL
solubility in water ([2]; water): essentially insoluble in water
